In patent US12083133B2, “Use of cholecalciferol as adjuvant in the treatment of muscular dystrophies” (ABIOGEN PHARMA SPA, priority 2021, dated 2024):
Entries after “also recorded” stand apart in the source; their conditions may differ.

Key:
Duchenne dystrophy = details: state of the art; optimal dose 0.75 mg/kg per day; cited from earlier work
muscular dystrophies = details: state of the art; cited from earlier work
[1] = system: muscle tissue of mdx mice; test: Histopathologic analyses of muscle tissue (haematoxylin-eosin), graded 0 (absent) to 3 (very high); type: in vivo, mouse
Experimental: These analyses were performed on the material taken during necropsy performed after the sacrifice of the animals of groups 7 and 8. In particular, the quadriceps femoris, the diaphragm and the anterior tibial muscle were collected.
The samples taken and fixed were decalcified, embedded in paraffin according to the known technique, cut into 5-7 μm thick sections and stained with haematoxylin-eosin. The following forms of alteration were evaluated at the muscle tissue level, each of which was classified according to a grade from 0 (absent) to 3 (very high): • Atrophy • Degeneration • Inflammation • Oedema • Presence of adipose tissue • Hypertrophy • Regeneration • Mineralization Results

mdx mice = test: Four limb hang test; type: in vivo, mouse
Description: For the study, it was chosen as experimental model the mdx (Muscular Dystrophy X-linked) mouse, which has long been used to evaluate the efficacy of drugs against muscular dystrophy and other degenerative diseases that affect skeletal muscles, inducing functional loss. These mice represent the reference animal model for clinical projections, also because they made it possible to overcome the obstacle of the limited availability of human biopsy material for experimental purposes.
The model responds to both steroidal and non-steroidal anti-inflammatory and immunosuppressive treatments and it is also used to study the differential gene and protein expression induced by the various treatments. The test system altogether consisted in 50 C57BL/10ScSn-Dmdxdx/J male mice and 27 C57/BL male mice of about 4-5 weeks of age.
After a short pre-housing period (about 4 days after arrival in the animal enclosure), the animals were subjected to baseline behavioural analyses, as described hereafter. The start time of the analyses, after the pre-housing period, is defined zero time (t=0).
Mice were also subjected to physical exercise with a rotating treadmill (Ugo Basile, Milan) for 15 minutes twice a week at a speed of 12 m/min, to standardize the pathology.
This test was performed at the beginning and at the end of the trial (baseline and final). It is performed using a device that uses a steel grid to measure the mouse's ability to support itself on all four limbs, opposing the force of gravity. The animal is placed on the grid (40×40 cm, delimited by iron strips placed perpendicular to the grid and 5 cm high, with 1 cm squares formed by 1 mm diameter steel wire) which is inverted so that the animal finds itself upside down and hangs on with its paws, about 30 cm from the floor. […] The grid is kept in position for a maximum of 5 minutes and the time, in seconds, during which the animal is able to hang with its paws is recorded.
The results of test are shown in the following table 2 and are expressed in seconds and normalized for the animal's weight. Groups 1-8 reported herein are those described in table 1.

[2] = cited from earlier work
Pax7 = test: Immunohistochemistry with anti-Pax7 antibody (satellite cells); type: in vivo, mouse
Experimental: (§1) Skeletal muscle growth and regeneration are attributable to satellite cells, which are stem cells resident in the basal lamina surrounding each myofiber. The expression of Pax7 (Paired-Box Transcription Factor 7) is constitutive, that is, this factor is expressed in these cells both in the quiescent and in the activation phase. When satellite cells are activated, they also co-express MyoD, which correlates with active muscle regeneration.
(§2) The expression of Pax7 was then analysed for the identification of satellite cells (progenitors) located under the basal lamina of myofibers, and of MyoD, expressed by myoblasts during proliferation.
(§3) Analyses were performed on the groups after 24 weeks of treatment.
(§4) Samples for immunohistochemistry were included in OCT, placed in isopentane, frozen with liquid nitrogen and kept at −80° C. Anti-Pax7 antibodies were used to label satellite cells and anti-MyoD for myoblasts.

MyoD = test: Immunohistochemistry with anti-MyoD antibody (proliferating myoblasts); type: in vivo, mouse; details: mdx mice, 24 weeks of treatment
Experimental: as §1, §2, §3, §4

[3] = system: muscle fibres of mdx mice; test: Fluorescence microscopy of muscle fibres (DAPI, anti-WGA); type: in vivo, mouse; details: 12 weeks of treatment, versus untreated control mdx mice
Description: In fluorescence microscopy analyses DAPI staining (blue) was used for nuclei, while an anti-WGA antibody (WGA, or wheat germ agglutinin, Alexa Fluor® 594 conjugate), which stains cell membranes in red, was used to mark muscle fibres.

[4] = group 8, mdx mice, 175 μg/kg/day once a week, t = 24 weeks, grade 0 to 3

C[C@]12C=CC(=O)C=C1CC[C@@H]1[C@@H]2C(=O)C[C@@]2(C)[C@H]1CC[C@]2(O)C(=O)CO [prednisone]
Delay of the progression time of Duchenne dystrophy (Duchenne dystrophy): more than 3 years

C[C@]12CC[C@H]3[C@@H](CCC4=CC(=O)CC[C@@]43C)[C@@H]1CC[C@@H]2O [testosterone]
Efficacy as therapy of muscular dystrophies (muscular dystrophies): ineffective

vitamin E
Efficacy as therapy of muscular dystrophies (muscular dystrophies): ineffective

C=C1CC[C@H](O)C/C1=C/C=C1\CCC[C@]2(C)[C@@H]([C@H](C)CCCC(C)C)CC[C@@H]12 [cholecalciferol]
Medium Grading: Atrophy ([1]; group 8, mdx mice, 175 μg/kg/day once a week, t = 24 weeks, grade 0 (absent) to 3 (very high)): 0.44
Medium Grading: Degeneration [1, 4]: 0
Medium Grading: Hypertrophy [1, 4]: 2.11
Medium Grading: Inflammation [1, 4]: 0
Medium Grading: Mineralization [1, 4]: 0.33
Medium Grading: Oedema [1, 4]: 0.44
Medium Grading: Presence of adipose tissue [1, 4]: 0.11
Medium Grading: Regeneration [1, 4]: 2.66
Microscopic examination of muscle tissue stained with haematoxylin-eosin (in words) ([1]; mdx mice treated for 24 weeks): areas of regeneration and hypertrophy, and only in few cases muscular atrophy, moreover at low levels
Time in seconds (normalized for the animal's weight) t = 12 weeks (mdx mice; group 5, mdx mice, 175 μg/kg/day (7000 IU/day) per os once per week for 12 weeks): 0.8 s
Time in seconds (normalized for the animal's weight) t = 0 (mdx mice; group 5, mdx mice, baseline before treatment (12-week arm)): 0.9 s
Time in seconds (normalized for the animal's weight) t = 24 weeks (mdx mice; group 8, mdx mice, 175 μg/kg/day (7000 IU/day) per os once per week for 24 weeks): 0.9 s
Time in seconds (normalized for the animal's weight) t = 12 weeks (mdx mice; group 8, mdx mice, 175 μg/kg/day (7000 IU/day) per os once per week, 24-week arm): 1.2 s
Time in seconds (normalized for the animal's weight) t = 0 (mdx mice; group 8, mdx mice, baseline before treatment (24-week arm)): 1.7 s
Increase in resistance to detachment from the grid, in terms of time, versus untreated mdx animals (mdx mice; mdx mice, test at 24 weeks): 80%
Blood half-life (T1/2) ([2]; estimated): 19 to 25 h
Functional half-life ([2]; related to slow release from adipose tissue): several weeks
Positivity of muscle tissue for anti-Pax7 antibody (marker of satellite cells) (Pax7; mdx mice treated with cholecalciferol): highly positive
Labelling with anti-Pax7 antibody (satellite cells) (Pax7; mdx mice, 24 weeks of treatment, versus vehicle-treated mdx mice): clearly present and localized on the contours of the muscle fibres; also recorded: more evident
Labelling with anti-MyoD antibody / expression of MyoD (MyoD): appears extensive; also recorded: restored the expression of MyoD to levels similar to those of wild-type mice
Structure of muscle fibres and position of cell nuclei [3]: cell nuclei distributed both centrally and peripherally and less disrupted muscle fibres; also recorded: visibly less disrupted

CC(C)(S)[C@@H](N)C(=O)O [penicillamine]
Efficacy as therapy of muscular dystrophies (muscular dystrophies): ineffective
